Reference: PubChem BioAssay AID1963440 (Molecular Pharmacology Branch, DTP, NCI, 2024)
“And” between values parts separate entries of the source, which are not always exact repeats. Equal values may be shown once.

Tested on: NCI-H1417 complex spheroids, growth % test/control
Assay: Anticancer human tumor NCI-H1417 cell line growth inhibition [Asc];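 note: spheroids exposed to compounds for 7 days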;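 for viability, T/C: 100% = DMSO vehicle control wells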
Conditions: for viability, T/C: stronger effect = lower value
Experimental: Multicellular complex tumor spheroid response to apoptosis pathway targeting inhibitors Alrizomadlin, Pelcitoclax, and Dasminapant in combination with a variety of drugs and investigational agents in selected tumor cell lines
The MDM2 inhibitor alrizomadlin, the Bcl-2/Bcl-xL inhibitor pelcitoclax, and the IAPs inhibitor dasminapant were evaluated both individually and in combination with standard of care and investigational anticancer small molecules within a complex spheroid model of solid tumors. . Complex spheroids include a stromal component modeled by human endothelial cells (HUVEC) and fibroblasts modeled by human mesenchymal stem cells (MSCs). The concentration ranges selected for each drug and investigational agent were based upon clinically achievable concentrations if the clinical Cmax of the agent was known.
Compounds. The drugs and investigational agents: alrizomadlin (APG-115; NSC831270), pelcitoclax (APG-1252; NSC835773), dasminapant (APG-1387;NSC834197), TAK-243 (NSC785004), copanlisib (NSC809693), olaparib (NSC753686), talazoparib (NSC767125), cobimetinib (NSC 768068), eltanexor (KPT-8602, NSC 794443), abemaciclib (NSC 768073), sotorasib (NSC818433), adagrasib (NSC 831453), MRTX-1133 (NSC 836407), Iadademestat (ORY1001, NSC 806812), and RMC-4630 (NSC839698), were obtained from the NCI Developmental Therapeutics Program Chemical Repository. The FDA-approved anticancer drug set is available from the Developmental Therapeutics Program at https://dtp.cancer.gov/organization/dscb/obtaining/available plates.htm. […] The stock solutions were prepared in dimethyl sulfoxide (DMSO, Sigma-Aldrich, St. Louis, MO, cat. D2650) at 800-fold the tested concentration and stored at -70 degrees C prior to their use. All drugs and investigational agents were tested over a range starting from a high concentration at or near the clinical Cmax and decreasing in half-log increments. If the clinical Cmax for an agent had not been determined, the highest concentration tested was 10 microM.
The patient-derived cancer (PDC) cell lines include five colon adenocarcinomas: 186277-243-T-J2-PDC, 616215-338-R-J1-PDC, 439559-082-T-J2-PDC, 463943-066-T-J2-PDC, and 519858-162-T-J1-PDC; three pancreatic carcinomas: 323965-272-R-J2-PDC, 521955-158-R6-J3-PDC, and 521955-158-R2-J5-PDC; two uterine sarcomas: 327498-152-R-J2-PDC and 993429-296-R-J1-PDC; two rhabdomyosarcomas: 755483-174-R-J1-PDC and 772245-204-R-J1-PDC; two soft tissue sarcomas: 126254-015-R-J1-PDC and 494315-158-R-J1-PDC; two malignant fibrous histiocytomas: 317291-083-R-J1-PDC and 596521-263-R-J1-PDC; two breast carcinomas: 171881-019-R-J1-PDC and 885512-296-R-J2-PDC; and one ovarian carcinoma: 6556581-035-R-J-PDC were obtained from the NCI PDMR, (https://pdmr.cancer.gov). The established cell lines HSSY-2 synovial sarcoma (RRID:CVCL 8719), SYO-1 synovial sarcoma (RRID:CVCL_7146), MPNST malignant peripheral neural sheath tumor were obtained from the Sloan Kettering Institute. The following established cell lines were purchased from the American Type Culture Collection (ATCC, Manassas, VA), Sor the received from the NCI repository:, PANC-1 pancreatic carcinoma (CRL-1469, RRID:CVCL_0480), OVCAR-5 ovarian carcinoma (RRID:CVCL_1628), OVCAR-8 ovarian carcinoma (RRID:CVCL_1629), , MCF-7 breast carcinoma (CRL-12584, RRID:CVCL_0031), MDA-MB-231 breast carcinoma (CRL-12532, RRID:CVCL_0062), NCI-H1876 small cell lung carcinoma (CRL-5902, RRID:CVCL_1503), NCI-H510A small cell lung carcinoma (HTB-184, RRID:CVCL_1565), NCI-H1417 (CRL-5869, RRID:CVCL_1469), and NCI-H196 small cell lung carcinoma (CRL-5823, RRID:CVCL_1509). Dr. Peter Houghton (Greehey Children's Cancer Research Institute, University of Texas Health Science Center, San Antonio, TX) provided Rh-18 rhabdomyosarcoma (RRID:CVCL_1659). Pooled donor human umbilical vein endothelial cells (HUVEC, Lonza, cat. CC-2519) and human mesenchymal stem cells (hMSC, Lonza, cat. PT-2501) were purchased from Lonza (Walkersville, MD).
Cell Culture. […]

[1] = curve of first compound, second compound 0.03 µM
[2] = curve of first compound, second compound 0.0949 µM
[3] = curve of first compound, second compound 0.3 µM
[4] = curve of first compound, second compound 0.949 µM
[5] = curve of first compound, second compound 3 µM

## Cc1nc(N2CCC3(CC2)COC(C)C3N)c(CO)nc1Sc1ccnc(N)c1Cl (configuration not stated) + CCN1C(C(=O)NC23CCC(C(=O)O)(CC2)CC3)C(c2cccc(Cl)c2F)C2(C(=O)Nc3cc(Cl)ccc32)C12CCCCC2
[1]
  IC50: > 3000 nM
[2]
  IC50: > 3000 nM
[3]
  IC50: > 3000 nM
[4]
  IC50: > 3000 nM
[5]
  IC50: > 3000 nM
Second compound 0.03 µM, first compound 0.00949 µM
  viability, T/C: 106%
Second compound 0.03 µM, first compound 0.03 µM
  viability, T/C: 104%
Second compound 0.03 µM, first compound 0.0949 µM
  viability, T/C: 92.1%
Second compound 0.03 µM, first compound 0.3 µM
  viability, T/C: 86.1%
Second compound 0.03 µM, first compound 0.949 µM
  viability, T/C: 90.4%
Second compound 0.03 µM, first compound 3 µM
  viability, T/C: 82.6%
Second compound 0.0949 µM, first compound 0.00949 µM
  viability, T/C: 92.8%
Second compound 0.0949 µM, first compound 0.03 µM
  viability, T/C: 89.5%
Second compound 0.0949 µM, first compound 0.0949 µM
  viability, T/C: 91.4%
Second compound 0.0949 µM, first compound 0.3 µM
  viability, T/C: 82.1%
Second compound 0.0949 µM, first compound 0.949 µM
  viability, T/C: 87.8%
Second compound 0.0949 µM, first compound 3 µM
  viability, T/C: 79.4%
Second compound 0.3 µM, first compound 0.00949 µM
  viability, T/C: 98.6%
Second compound 0.3 µM, first compound 0.03 µM
  viability, T/C: 104%
Second compound 0.3 µM, first compound 0.0949 µM
  viability, T/C: 106%
Second compound 0.3 µM, first compound 0.3 µM
  viability, T/C: 82.7%
Second compound 0.3 µM, first compound 0.949 µM
  viability, T/C: 92.9%
Second compound 0.3 µM, first compound 3 µM
  viability, T/C: 82.5%
Second compound 0.949 µM, first compound 0.00949 µM
  viability, T/C: 103%
Second compound 0.949 µM, first compound 0.03 µM
  viability, T/C: 93.9%
Second compound 0.949 µM, first compound 0.0949 µM
  viability, T/C: 97.4%
Second compound 0.949 µM, first compound 0.3 µM
  viability, T/C: 78.3%
Second compound 0.949 µM, first compound 0.949 µM
  viability, T/C: 73.3%
Second compound 0.949 µM, first compound 3 µM
  viability, T/C: 84.4%
Second compound 3 µM, first compound 0.00949 µM
  viability, T/C: 88.9%
Second compound 3 µM, first compound 0.03 µM
  viability, T/C: 95%
Second compound 3 µM, first compound 0.0949 µM
  viability, T/C: 96.5%
Second compound 3 µM, first compound 0.3 µM
  viability, T/C: 99.7%
Second compound 3 µM, first compound 0.949 µM
  viability, T/C: 79.9%
Second compound 3 µM, first compound 3 µM
  viability, T/C: 80.3%

## O=C(c1cc(Cc2n[nH]c(=O)c3ccccc23)ccc1F)N1CCN(C(=O)C2CC2)CC1 + CCN1C(C(=O)NC23CCC(C(=O)O)(CC2)CC3)C(c2cccc(Cl)c2F)C2(C(=O)Nc3cc(Cl)ccc32)C12CCCCC2
[1]
  IC50: 2860 nM
[2]
  IC50: 3970 nM
[3]
  IC50: 2690 nM
[4]
  IC50: 2960 nM
[5]
  IC50: 3210 nM
Second compound 0.03 µM, first compound 0.0316 µM
  viability, T/C: 98.2%
Second compound 0.03 µM, first compound 0.1 µM
  viability, T/C: 96.3%
Second compound 0.03 µM, first compound 0.316 µM
  viability, T/C: 107%
Second compound 0.03 µM, first compound 1 µM
  viability, T/C: 82.3%
Second compound 0.03 µM, first compound 3.16 µM
  viability, T/C: 48%
Second compound 0.03 µM, first compound 10 µM
  viability, T/C: 33.6%
Second compound 0.0949 µM, first compound 0.0316 µM
  viability, T/C: 101%
Second compound 0.0949 µM, first compound 0.1 µM
  viability, T/C: 110%
Second compound 0.0949 µM, first compound 0.316 µM
  viability, T/C: 88.7%
Second compound 0.0949 µM, first compound 1 µM
  viability, T/C: 84.8%
Second compound 0.0949 µM, first compound 3.16 µM
  viability, T/C: 53.6%
Second compound 0.0949 µM, first compound 10 µM
  viability, T/C: 29.9%
Second compound 0.3 µM, first compound 0.0316 µM
  viability, T/C: 101%
Second compound 0.3 µM, first compound 0.1 µM
  viability, T/C: 103%
Second compound 0.3 µM, first compound 0.316 µM
  viability, T/C: 98%
Second compound 0.3 µM, first compound 1 µM
  viability, T/C: 76.8%
Second compound 0.3 µM, first compound 3.16 µM
  viability, T/C: 46.1%
Second compound 0.3 µM, first compound 10 µM
  viability, T/C: 31.2%
Second compound 0.949 µM, first compound 0.0316 µM
  viability, T/C: 95.3%
Second compound 0.949 µM, first compound 0.1 µM
  viability, T/C: 105%
Second compound 0.949 µM, first compound 0.316 µM
  viability, T/C: 82.9%
Second compound 0.949 µM, first compound 1 µM
  viability, T/C: 76.2%
Second compound 0.949 µM, first compound 3.16 µM
  viability, T/C: 47.3%
Second compound 0.949 µM, first compound 10 µM
  viability, T/C: 29.8%
Second compound 3 µM, first compound 0.0316 µM
  viability, T/C: 94%
Second compound 3 µM, first compound 0.1 µM
  viability, T/C: 90.1%
Second compound 3 µM, first compound 0.316 µM
  viability, T/C: 95.9%
Second compound 3 µM, first compound 1 µM
  viability, T/C: 74.8%
Second compound 3 µM, first compound 3.16 µM
  viability, T/C: 51.5%
Second compound 3 µM, first compound 10 µM
  viability, T/C: 28.3%

## Cn1ncnc1[C@H]1c2n[nH]c(=O)c3cc(F)cc(c23)N[C@@H]1c1ccc(F)cc1
Compound 0.000316 µM
  viability, T/C: 101% and 113% and 97.4%
Compound 0.001 µM
  viability, T/C: 90.8% and 116% and 85%
Compound 0.00316 µM
  viability, T/C: 81.6% and 87.3% and 69.7%
Compound 0.01 µM
  viability, T/C: 70.8% and 75.9% and 67.2%
Compound 0.0316 µM
  viability, T/C: 56.4% and 77% and 57%
Compound 0.1 µM
  viability, T/C: 44% and 79.8% and 30.6%
Curve of compound
  IC50: 58.2 nM and > 100 nM and 32.1 nM
